Results on 56 compounds are retold here after the OPERA property sets (Mansouri et al. 2018).

In general, logP refers to a log measure of how a compound divides between an organic and an aqueous phase. A lower logP goes with a more hydrophilic compound.

Compound `CCOC(=O)N(C)C` had a logP of 0.89.
The value for `COc1ccncc1` was 1; that for `NC(=S)c1cccnc1` was 0.67; that for `C=CCC(CC=C)(NC(C)=O)C(N)=O` was 0.05.
Take `[N-]=[N+]=Nc1ccccc1`: the logP amounted to 2.59.
The value for `COc1cc(SC)c(OC)cc1CCN` was 1.81; that for `NC(Cc1ccc([N+](=O)[O-])cc1)C(=O)O` (stereo unspecified) was -1.25; that for `COC(=O)C(C)(C)C` was 1.83.
As for `Cc1cccc2nccnc12`, the figure is 2.04.
Regarding `CCN(CC)CCNC(=O)c1cc([N+](=O)[O-])c(N)cc1OC`, the logP was 2.11.
The value for `NCCN1CCCC1` was 0.08; that for `CNC(=S)NNc1ccccc1` was 1.17.
In turn, `NC(=O)c1ccc(Cl)cc1` gave a logP of 1.55.
The compound `CN(N=O)C(=O)Nc1ccc(F)cc1` had a logP of 1.88.
The compound `Clc1ccc(Cl)c(-c2ccc(Cl)c(Cl)c2)c1` displayed a logP of 6.23.
`CN(C)C(=O)Nc1cccc([N+](=O)[O-])c1` returned a logP of 1.46.
`O=C(O)C1c2ccccc2Sc2ccccc21` displayed a logP of 2.57.
As for `c1ccc(Sc2cccnc2)cc1`, the logP was found to be 3.15.
`CCCCNC(=O)n1c(NC(=O)OC)nc2ccccc21` displayed a logP of 2.12.
Take `N#CC(C(=O)NC(CO)C(O)c1ccc([N+](=O)[O-])cc1)c1ccccc1` (stereo unspecified): the logP was determined as 1.47.
Consider `COC(=O)c1cc(Cl)ccc1N`, for which the logP turned out to be 3.3.
The compound `CCn1cnc2c(NC(C)=O)ncnc21` came in with a logP of -0.41.
For the compound `N#Cc1ccccc1O`, the logP came to 1.61.
`CC(C)N(N=O)C(C)C`: the logP worked out at 1.38.
In turn, `CC(=O)C(Cc1ccccc1)C(C)=O` showed a logP of 1.89.
Compound `CC(C)N1CCN=C1CN1CCCCSc2ccc(Cl)cc21` returned a logP of 5.15.
In the case of `CC(=O)Nc1cccc2nccnc12`, the logP was 1.06.
For `CCCNc1nc(NCC)nc(SC(F)F)n1`, the logP is 3.8.
In turn, `CCOC(=O)C(=Cc1ccc(Cl)cc1)C(C)=O` yielded a lipophilicity (logP) of 3.04.
Compound `CCCCNC` had a logP of 1.33.
As for `CCNc1nc(NC(C)C)nc(SC)n1`, the figure is 2.98; as for `CCOC(=O)[C@H](O)[C@@H](O)C(=O)OCC`, -0.29; as for `CON(C)C(=O)Nc1ccccc1`, 1.29.
For the compound `c1ccc(-n2cccc2)cc1`, the logP amounted to 3.08.
`COc1ccccc1S(I)=C(N(C)C)N(C)C` (stereo unspecified): the logP is -0.52.
Turning to `CCCOC(=O)C(C(=O)OCCC)=C1SC=CS1`, the logP is 3.93.
Compound `O=C(Cc1cccs1)N[C@@H]1C(=O)N2C(C(=O)[O-])=C(C[n+]3ccccc3)CS[C@H]12` displayed a logP of -1.62.
`CC(C)(C)c1cccc(C(C)(C)C)n1` returned a logP of 4.14.
Turning to `NS(=O)(=O)c1ccc(Br)cc1`, the logP was determined as 1.36.
`Sc1ccccc1` registered a logP of 2.52.
In turn, `ON=Cc1ccc(F)cc1` returned a logP of 2.03.
Consider `Cc1c(O)c(=O)ccn1CCN`, for which the logP is -1.55.
As for `CCCCC(CC)COP(=O)(Oc1ccccc1)Oc1ccccc1` (stereo unspecified), the figure is 5.73; as for `CCOC(=O)/C(=C\c1ccccc1Cl)C(C)=O`, 2.84; as for `O=C(O)Cc1cccc(C(F)(F)F)c1`, 2.62.
Regarding `CCOS(=O)(=O)OCC`, the logP was determined as 1.14.
`CNC(=O)Oc1ccc(C(=O)OC)cc1` showed a lipophilicity (logP) of 1.5.
In the case of `COc1ccc2cccnc2c1`, the lipophilicity (logP) was 2.37.
As for `Brc1cnc2ccccc2c1`, the figure is 3.03; as for `FC(F)(F)c1cccc(C2CNCCO2)c1` (stereo unspecified), 2.18.
`CNC(=O)Oc1ccc(Cl)cc1`: the logP was 2.01.
On to `O=C1C(=O)c2cccc3cccc1c23`, for which the logP amounted to 1.95.
On to `Cc1cccc(OC(=O)c2ccc(N)cc2O)c1`, for which the logP is 3.64.
`Cc1cccc(Cl)c1Nc1ccccc1CC(=O)O`: the logP turned out to be 4.37.
Regarding `COC(=O)C(Cl)(Cl)Cl`, the logP amounted to 2.03.
In turn, `O=C(O)CCCn1nnc2ccccc21` returned a log partition coefficient (logP) of 0.01.
